Reference: US20150274719A1, “AMINO-SUBSTITUTED IMIDAZO[1,2-A]PYRIDINECARBOXAMIDES AND THEIR USE” (BAYER PHARMA AKTIENGESELLSCHAFT, priority 2012, published 2015)
Where a name gives a salt, the structure may show the parent alone.

target: T1, recombinant guanylate cyclase reporter cell line (Rattus norvegicus, UniProt P19686+P20595); experiment: Action on recombinant guanylate cyclase reporter cell line; assay type: cell-based; conditions: in some cases mean values from individual determinations
T1 construct: expressed in transfected cells; host or cells: recombinant reporter cell line
T1 sequence (P19686 1-690): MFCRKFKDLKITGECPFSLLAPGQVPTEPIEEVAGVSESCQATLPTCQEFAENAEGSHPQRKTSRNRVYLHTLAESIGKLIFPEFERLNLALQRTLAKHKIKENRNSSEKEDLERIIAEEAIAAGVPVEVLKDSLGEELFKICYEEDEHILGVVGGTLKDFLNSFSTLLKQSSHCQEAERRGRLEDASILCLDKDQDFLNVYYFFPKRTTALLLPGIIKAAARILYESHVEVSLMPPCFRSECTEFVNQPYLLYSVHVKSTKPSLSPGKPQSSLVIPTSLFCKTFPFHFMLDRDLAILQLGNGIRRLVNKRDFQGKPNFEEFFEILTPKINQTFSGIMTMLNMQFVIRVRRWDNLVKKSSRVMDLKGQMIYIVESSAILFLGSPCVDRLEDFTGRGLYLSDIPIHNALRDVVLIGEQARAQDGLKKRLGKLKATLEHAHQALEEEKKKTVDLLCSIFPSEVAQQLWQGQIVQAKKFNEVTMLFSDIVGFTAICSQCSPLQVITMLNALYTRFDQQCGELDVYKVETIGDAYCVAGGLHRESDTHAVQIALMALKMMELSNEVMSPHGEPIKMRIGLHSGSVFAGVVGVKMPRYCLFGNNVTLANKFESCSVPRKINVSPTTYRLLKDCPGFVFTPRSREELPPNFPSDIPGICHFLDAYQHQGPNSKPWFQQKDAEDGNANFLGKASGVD
T1 sequence (P20595 1-619): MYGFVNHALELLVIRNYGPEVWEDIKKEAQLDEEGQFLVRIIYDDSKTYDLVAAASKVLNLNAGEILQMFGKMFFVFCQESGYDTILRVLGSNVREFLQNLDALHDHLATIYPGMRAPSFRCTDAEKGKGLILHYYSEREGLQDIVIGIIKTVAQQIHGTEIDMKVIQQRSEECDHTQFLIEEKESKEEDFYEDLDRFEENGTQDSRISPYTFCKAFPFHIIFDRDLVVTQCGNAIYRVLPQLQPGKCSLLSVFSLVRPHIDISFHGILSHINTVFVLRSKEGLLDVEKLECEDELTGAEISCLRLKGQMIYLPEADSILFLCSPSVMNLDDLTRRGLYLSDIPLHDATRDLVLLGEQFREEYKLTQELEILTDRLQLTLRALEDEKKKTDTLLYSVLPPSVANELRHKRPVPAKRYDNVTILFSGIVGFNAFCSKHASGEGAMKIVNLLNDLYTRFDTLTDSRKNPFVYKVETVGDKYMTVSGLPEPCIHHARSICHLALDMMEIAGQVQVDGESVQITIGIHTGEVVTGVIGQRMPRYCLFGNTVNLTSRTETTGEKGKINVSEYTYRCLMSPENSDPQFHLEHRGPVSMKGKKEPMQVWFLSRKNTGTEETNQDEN
Procedure, shortened: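 Whole-cell reporter assay with recombinant guanylate cyclase; endpoint = minimal effective concentration.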

Compound | MEC (minimal effective concentration)
Cc1cc(OCCC(C)C)c2nc(C)c(C(=O)NCC(C)(N)CC(C)C)n2c1 (racemic) [Example 249, rac-N-(2-Amino-2,4-dimethylpentyl)-2,6-dimethyl-8-(3-methylbutoxyl)imidazo[1,2-a]pyridine-3-carboxamide] | 1.00 µM
CCCC(C)(N)CNC(=O)c1c(C)nc2c(OCc3c(F)cccc3F)cc(C)cn12 (single isomer, unassigned) [Example 234, ent-N-(2-Amino-2-methylpentyl)-8-[(2,6-difluorobenzyl)oxy]-2,6-dimethylimidazo[1,2-a]pyridine-3-carboxamide] | 0.03 µM
Cc1cc(OCc2c(F)cccc2F)c2nc(C)c(C(=O)NCC(C)(N)CC(C)C)n2c1 (racemic) [Example 218, rac-N-(2-Amino-2,4-dimethylpentyl)-8-[(2,6-difluorobenzyl)oxy]-2,6-dimethylimidazo[1,2-a]-pyridine-3-carboxamide] | 0.10 µM
Cc1cc(OCc2c(F)cccc2F)c2nc(C)c(C(=O)NC(CN)c3cc(F)c(F)c(F)c3)n2c1 (racemic) [Example 390, rac-N-[2-amino-1-(3,4,5-trifluorophenyl)ethyl]-8-[(2,6-difluorobenzyl)oxy]-2,6-dimethylimidazo[1,2-a]pyridine-3-carboxamide] | 0.30 µM
Cc1nc2c(OCc3c(F)cccc3F)cc(Cl)cn2c1C(=O)NCC(C)N (single isomer, unassigned) [Example 30, ent-N-(2-Aminopropyl)-6-chloro-8-[(2,6-difluorobenzyl)oxy]-2-methylimidazo[1,2-a]pyridine-3-carboxamide] | 0.30 µM
Cc1cc(OCc2c(F)cccc2F)c2nc(C)c(C(=O)NCC3(N)CCC3)n2c1 [Example 165, N-[(1-aminocyclobutyl)methyl]-8-[(2,6-difluorobenzyl)oxy]-2,6-dimethylimidazo[1,2-a]-pyridine-3-carboxamide] | 0.10 µM
Cc1cc(OCc2c(F)cccc2F)c2nc(C)c(C(=O)NCCNC(C)(C)C)n2c1 [Example 255, N-[2-(tert-Butylamino)ethyl]-8-[(2,6-difluorobenzyl)oxy]-2,6-dimethylimidazo[1,2-a]pyridine-3-carboxamide] | 0.30 µM
Cc1nc2c(OCc3c(F)cccc3F)cccn2c1C(=O)NC1CN2CCC1CC2 (centres unmarked) [Example 92, N-(1-azabicyclo[2.2.2]oct-3-yl)-8-[(2,6-difluorobenzyl)oxy]-2-methylimidazo[1,2-a]-pyridine-3-carboxamide] | 0.30 µM
Cc1cc(OCc2c(F)cccc2F)c2nc(C)c(C(=O)NCC(N)c3ccc4c(c3)OCCO4)n2c1 (racemic) [Example 371, rac-N-[2-amino-2-(2,3-dihydro-1,4-benzodioxin-6-yl)ethyl]-8-[(2,6-difluorobenzyl)oxy]-2,6-dimethylimidazo[1,2-a]pyridine-3-carboxamide] | 3.00 µM
CCCC(C)(N)CNC(=O)c1c(C)nc2c(OCc3c(F)ccc(F)c3F)cc(C)cn12 (racemic) [Example 293, rac-N-(2-amino-2-methylpentyl)-2,6-dimethyl-8-[(2,3,6-trifluorobenzyl)oxy]imidazo[1,2-a]pyridine-3-carboxamide] | 0.03 µM
Cc1cc(OCc2c(F)cccc2F)c2nc(C)c(C(=O)NC34CC5CC(CC(N)(C5)C3)C4)n2c1 [Example 365, N-(3-aminoadamantan-1-yl)-8-[(2,6-difluorobenzyl)oxy]-2,6-dimethylimidazo[1,2-a]pyridine-3-carboxamide Formate] | 1.00 µM
COc1ccc(F)c(COc2cc(C)cn3c(C(=O)NCC(C)(N)CF)c(C)nc23)c1F (stereo not drawn) [Example 361, ent-N-(2-amino-3-fluoro-2-methylpropyl)-8-[(2,6-difluoro-3-methoxybenzyl)oxy]-2,6-dimethylimidazo[1,2-a]pyridine-3-carboxamide] | 1.00 µM
Cc1cc(OCc2c(F)cccc2F)c2nc(C)c(C(=O)NCCC(C)(C)N)n2c1 [Example 114, N-(3-amino-3-methylbutyl)-8-[(2,6-difluorobenzyl)oxy]-2,6-dimethylimidazo[1,2-a]-pyridine-3-carboxamide] | 0.30 µM
Cc1cc(OCc2c(F)cccc2F)c2nc(C)c(C(=O)NCC3(N)CC3)n2c1 [Example 40, N-[(1-aminocyclopropyl)methyl]-8-[(2,6-difluorobenzyl)oxy]-2,6-dimethylimidazo[1,2-a]-pyridine-3-carboxamide] | 0.10 µM

The remaining lines, values ahead:

MEC (minimal effective concentration) | Compound
3.00 µM | COCCNCCNC(=O)c1c(C)nc2c(OCc3c(F)cccc3F)cccn12 [Example 144, 8-[(2,6-difluorobenzyl)oxy]-N-{2-[(2-methoxyethyl)amino]ethyl}-2-methylimidazo[1,2-a]pyridine-3-carboxamide]
1.00 µM | COCC(C)(N)CNC(=O)c1c(C)nc2c(OCc3c(F)cccc3F)cccn12 (racemic) [Example 213, rac-N-(2-Amino-3-methoxy-2-methylpropyl)-8-[(2,6-difluorobenzyl)oxy]-2-methylimidazo[1,2-a]-pyridine-3-carboxamide]
0.10 µM | [2H]C([2H])(Oc1cccn2c(C(=O)NC(CN)c3ccc(F)c(F)c3)c(C)nc12)c1c(F)cccc1F (stereo not drawn) [Example 97, ent-N-[2-Amino-1-(3,4-difluorophenyl)ethyl]-8-{[(2,6-difluorophenyl)(^2H2)methyl]oxy}-2-methylimidazo[1,2-a]pyridine-3-carboxamide]
0.30 µM | COc1cccc(C(CN)NC(=O)c2c(C)nc3c(OCc4c(F)cccc4F)cc(C)cn23)c1 (racemic) [Example 382, rac-N-[2-amino-1-(3-methoxyphenyl)ethyl]-8-[(2,6-difluorobenzyl)oxy]-2,6-dimethylimidazo[1,2-a]pyridine-3-carboxamide]
0.03 µM | Cc1nc2c(OCc3c(F)cccc3F)cccn2c1C(=O)NC1CCNc2ccccc21 (racemic) [Example 50, rac-8-[(2,6-Difluorobenzyl)oxy]-2-methyl-N-(1,2,3,4-tetrahydroquinolin-4-yl)imidazo[1,2-a]-pyridine-3-carboxamide]
0.10 µM | CCC(N)(CC)CNC(=O)c1c(C)nc2c(OCc3c(F)cccc3F)cccn12 [Example 253, N-(2-Amino-2-ethylbutyl)-8-[(2,6-difluorobenzyl)oxy]-2-methylimidazo[1,2-a]pyridine-3-carboxamide]
1.00 µM | Cc1nc2c(OCc3c(F)cccc3F)cccn2c1C(=O)NCC(C)N (racemic) [Example 34, rac-N-(2-aminopropyl)-8-[(2,6-difluorobenzyl)-oxy]-2-methyl-imidazo[1,2-a]pyridine-3-carboxamide dihydrochloride]
0.10 µM | Cc1nc2c(OCc3c(F)cccc3F)cccn2c1C(=O)NCC(C)(N)CC(C)C (racemic) [Example 202, rac-N-(2-Amino-2,4-dimethylpentyl)-8-[(2,6-difluorobenzyl)oxy]-2-methylimidazo[1,2-a]pyridine-3-carboxamide]
0.30 µM | Cc1cc(OCc2c(F)cccc2F)c2nc(C)c(C(=O)NC3CCC3(C)N)n2c1 (racemic) [Example 331, rac-N-(2-amino-2-methylcyclobutyl)-8-[(2,6-difluorobenzyl)oxy]-2,6-dimethylimidazo[1,2-a]pyridine-3-carboxamide]
